Marks after values point to notes of the source that are not given here.
Experiments:
[1] = system: Ehrlich ascites carcinoma (EAC); test: Ehrlich ascites carcinoma (EAC) mouse model; format: in vivo
Description: 10 male outbred mice (5 mice per group) at the age of 10 weeks, weighing 19-23 g were used in Ehrlich ascites carcinoma (EAC) model. Before the experiment, all the animals were healthy, with normal behavioral performance. During the experiment, the animals were kept in plastic cages under natural light illumination, on a standard diet with free access to food and water. An ascites strain of mouse breast cancer (EAC) maintained in outbred mice was used in the experiment. To inoculate the strain, the tumor cells derived from the ascitic fluid were placed in saline solution. The suspension cellularity was evaluated in the hemocytometer and adjusted to a concentration of 1×10^6 cells/ml with saline solution. The tumor was transplanted by injecting […] of the tumor cell suspension (0.25×10^6 cells/mouse) into the abdominal cavity of the animals.
The animals were divided into groups as follows: • Group No 1—control group, mice with EAC+solvent (deuterium-depleted water (this water contains deuterium at a level of 10 ppm)); • Group No 2−mice with EAC+^64Zne aspartate.
The solution comprising ^64Zne aspartate was injected intraperitoneally using a microinjection syringe at a dose of 0.075 mg (75 μg)/mouse every other day (5 times during 10 days) starting from the first day after injection in a volume of 0.5 ml/mouse. […] On the 13th day after i.p. inoculation of tumor cells, the whole ascites fluid was recovered from the animals and the total number of live/dead cells in each mouse was determined. Deuterium-depleted water alone was used instead of a solution of ^64Zne aspartate as control in the experiment.
The dynamics of formation of ascites in the control and experimental groups was assessed visually using a 10-point scale (one point was 0.46 cm of the mean diameter of the mouse abdomen filled with ascites).
In addition, on the 13th day after intraperitoneal inoculation of tumor cells, all ascetic fluid was removed from the abdomens in all animals from each group by washing their peritoneal cavities with saline solution and live and dead tumor cells were counted using the traditional vital dye trypan blue (HyClon, USA) and a hemocytometer.
The number of cells was determined using the following formula: X=((a)/80)×10^6, where X is the number of cells in 1 ml and a is the number of cells counted in 80 small squares of the hemocytometer.

[2] = system: human melanoma tumor cells (MM-4 cell line); test: Scratch assay, MM-4 cells; format: cell-based; conditions: ^64Zn 15 mcg/ml; 48 hours in control
Description: (§1) The cells of A-549, A-431, NRK, HaCaT, MM-4, normal fibroblasts (derived from the Bank of Cell Lines from human and animal tissues, R. E. Kavetsky Institute of Experimental Pathology, Oncology and Radiobiology, National Academy of Sciences of Ukraine) were cultured in complete culture medium RPMI 1640/DMEM (PAA, Austria) (depending on the cell type) supplemented with 10% fetal calf serum (PAA, Austria) and incubated in 5% CO2 humidified atmosphere at 37° C. The culture medium was replaced in 2 to 3 days and the cells were passaged in 4 to 5 days.
(§2) Analysis of the influence of the components under study on the cell migration rate was performed using the scratch assay method. […]
(§3) The plate was incubated in a CO2 incubator for additional 48 hours. After the cells formed a dense monolayer it was damaged (by making a “scratch”) and the growth medium was replaced to remove cell debris and smooth the edges of the “scratch.” The rate of cell migration was analyzed using an inverted microscope and by photographing cells in the area of injury. The migration activity of cells was fixed at several time points (depending on the cell line analyzed). The microphotomicrographs were analyzed and the cell incubation time needed to restore the monolayer was determined for all experimental groups. […]

[3] = system: healthy human skin cells (HaCaT cell line); test: Scratch assay, HaCaT cells; format: cell-based; conditions: ^64Zn 25 mcg/ml; equal to control
Description: as §1, §2, §3

| Structure (SMILES) | suppression of growth of Ehrlich ascites carcinoma ([1]; after 5 injections) [%] | Volume of ascites in mice ([1]; day 7 after inoculation, 75 μg/mouse i.p. every other day x5) | Volume of ascites in mice ([1]; day 9, 75 μg/mouse i.p. x5) | Volume of ascites in mice ([1]; day 11, 75 μg/mouse i.p. x5) | Number of dead cells/mouse ([1]; day 13, 75 μg/mouse i.p.) | Number of live cells/mouse (M ± m) ([1]; day 13, 75 μg/mouse i.p.) | Volume of ascites (M ± m) ([1]; day 13, 75 μg/mouse i.p.) | Volume of ascites in mice ([1]; day 13, 75 μg/mouse i.p. x5) | time of the gap closing [2] [h] | time of monolayer healing [3] [h] |
| --- | --- | --- | --- | --- | --- | --- | --- | --- | --- | --- |
| NC(CC(=O)[O-])C(=O)[O-].[64Zn+2] (racemic) [^64Zne aspartate, ^64Zn aspartate (racemic)] | 100 | 0* points | 0** points | 0* points | 0 | 0* cells/mouse | 0* ml/mouse | 0** points |  |  |
| O=S(=O)([O-])[O-].[64Zn+2] [^64Zn] |  |  |  |  |  |  |  |  | 72 | 36 |

Source: patent US10857180B2, “Pharmaceutical composition for improving health, cure abnormalities and degenerative disease, achieve anti-aging effect of therapy and therapeutic effect on mammals and method thereof” (priority 2014, dated 2020)
